Tests used:
[1] = biological target: T1, ERV-1 receptor (CHO-ERV-1 positive cells) (Homo sapiens, UniProt Q99788); experiment: Intracellular calcium signaling (Calcium5 FLIPR) in CHO ERV1+ cells; assay type: cell-based; settings: 1, 10, 100 nM
T1 construct: host or cells: CHO-K1/CMKLR1/Ga15 (CHO ERV1+)
T1 sequence (Q99788 1-373): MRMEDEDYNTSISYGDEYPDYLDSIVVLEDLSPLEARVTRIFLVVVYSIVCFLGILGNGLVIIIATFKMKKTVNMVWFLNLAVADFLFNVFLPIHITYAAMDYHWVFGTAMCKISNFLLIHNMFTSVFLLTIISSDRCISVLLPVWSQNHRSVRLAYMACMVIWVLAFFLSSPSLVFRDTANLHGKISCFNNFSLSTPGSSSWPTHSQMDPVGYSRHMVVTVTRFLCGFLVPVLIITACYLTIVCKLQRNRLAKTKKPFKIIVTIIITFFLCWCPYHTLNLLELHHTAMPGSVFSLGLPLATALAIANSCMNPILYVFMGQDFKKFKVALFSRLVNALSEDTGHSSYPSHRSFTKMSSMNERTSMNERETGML
Experimental: To investigate calcium mobilization, cells were transferred to a 96-well plate at density of 60,000 cells per well in 80 μl of growth medium 18 hours prior to the day of experiment and maintained at 37° C./5% CO2.
After aspiration of the media, cells were labeled with the fluorescent probe, Calcium5 FLIPR (Medical Devices). After agonist treatment, detection of changes in fluorescence were detected by microplate reader and expressed as change in relative fluorescence units (ΔRFU).
To investigate calcium mobilization, CHO ERV1+ cells were transferred to a 96-well plate at density of 60,000 cells per well in 80 μl of growth medium 18 hours prior to the day of experiment and maintained at 37° C./5% CO2. After aspiration of the media, cells were labeled with the fluorescent probe, Calcium5 FLIPR (Medical Devices). After agonist treatment, detection of changes in fluorescence were detected by microplate reader and expressed as change in relative fluorescence units (ARFU).
To determine whether the immune complexes between ERV-1 receptor and various anti-ERV-1 antibodies permit the bound immune complex to interact with ERV-1 cellular receptor functions, an in vitro assay was devised. To that end, calcium intracellular signaling was measured upon agonist ligand binding. […] After 20 seconds, calcium mobilization was measured through fluorescence (FIG. 15). […]

[2] = test system: ERV1tg mice; experiment: Zymosan-induced peritonitis, peritoneal lavage cells by flow cytometry; assay type: in vivo; settings: injected together with zymosan; 12 hours of inflammation
Experimental: Cells were extracted from peritoneal exudates collected after 12 hours of intraperitoneal injection of zymosan-A (1 mg/ml in PBS). Isolated cells were incubated with anti-Fc receptor (BD) blocking antibody (5 μg/ml×106 cells, 15 min) and then labeled with anti-human ERV1 alexafluor 488-conjugated antibody (10 μg/ml×106 cells, 1 hour at RT) or anti-IgG alexafluor 488 (isotype control, R&D Systems). Expression of ERV1 on neutrophils was evaluated by immunofluorescence and quantified by flow cytometry. ERV-1, […] positive monocytes were stained with PE-conjugated anti-mouse Arg-1 and FITC-conjugated anti-mouse EGR-(10 μg/ml×106 cells, 1 hour at RT) (BD Biosciences).
Peritonitis was initiated by zymosan particle injections […] to ERV1tg mice peritoneal tissues. It had been previously established that Resolvin-E1 could affect inflammation-related responses in an ERV-1 dependent manner in vivo in cells derived from diabetic subjects (Freire, M. et al., J. Immunol. 198(2):718-728 (2017)). To further understand the biological response induced by resolvimabs, purified clones were injected together with the zymosan stimuli (FIGS. 9A-D). […] We have looked if these compound would influence the phenotype of neutrophils and monocytes after 12 hours of inflammation in vivo.

## CC[C@@H](O)/C=C/C=C\C[C@@H](O)/C=C/C=C/C=C\[C@@H](O)CCCC(=O)O [resolvinE-1, resolvin E1]
[1]
  agonist functions (calcium intracellular signaling): found

B1: C4: resolvimab, anti-ERV-1 monoclonal antibody; VH SEQ ID NO: 14, VK SEQ ID NO: 16 (antibody, V domains shown)
VH: EVKLEESGAELVMPGASVKLSCKASGYTFTSYWMHWVKQRPGQGLEWVAEIDPSDSYTNYNQKFKGKATLTVDKSSSTAYMQLSSLTSEDSAVYYCARDGDILTTVVAKGFVYWGQGTLV
VL: LSLPVSLGDQASISCRSSQTIVHSNGNTYLEWYLQKPGQSPKLLIYKVSNRFSGVPDRFSGSGSGTDFTLKISRVEAEDLGVYYCFQGSHVPWTFGGGTKLEIK
modifications: Immunoglobulin VH Region; Immunoglobulin VL(K) region
[2]
  inflammatory infiltrate (flow cytometry quantification): decrease

Source: patent US11351140B2, “Resolvin mimetic antibodies and uses thereof” (J. Craig Venter Institute, Inc., priority 2017, dated 2022)
